From patent publication US20110200527A1, “Peptide Ligand Directed Drug Delivery” (Shanghai Jiaotong University, priority 2007, published 2011)
≈ marks a conversion by molar mass, not a printed value.

Legend:
[1] = system: H1299 cells; assay: MTT cell killing assay, H1299; type: cell-based; conditions: Homo sapiens, NCI-H1299, H1299, 2 hours exposure, then 48 hours growth, read-out: calculated IC50
Procedure: (§1) H1299 and SPCA1 cells were plated at the density of 10^4 cells/well in 96-well plates and grown overnight. […] The cells were then washed with fresh medium, and let grown for another 48 hours. The cell viabilities after different treatments were determined using a MTT assay (26).

[2] = system: SPCA1 cells; assay: MTT cell killing assay, SPCA1; type: cell-based; conditions: Homo sapiens, SPCA1, 2 hours exposure, then 48 hours growth, read-out: calculated IC50
Procedure: as §1

[3] = system: H-460 cells; assay: FACS analysis of liposome binding by doxorubicin fluorescence; type: cell-based; conditions: 0.01 to 10 μg/ml doxorubicin, FIG. 8
Procedure: H-460 cells were grown in cell culture plate under sterile conditions and harvested by scraping. The liposome samples (empty Thermodox liposome, ThermoDox, D4-ThermoDox, D4*-ThermoDox where D4 ThermoDox comprises SEQ ID NO:1 and D4*ThermoDox comprises SEQ ID NO:2) and doxorubicin hydrochloride were added and incubated at 37° C. with H-460 cells for 4 hours. Two different liposomes comprising different amounts of the peptide of the invention (D4-ThermoDox) were tested. The two liposomes were designated D4-ThermoDox2+2, which comprised DPPC:MSPC: DSPE-MPEG2000:D4-DSPE-MPEG2000 in a 90:10:2:2 molar ratio and D4-ThermoDox4+4, which comprised DPPC:MSPC: DSPE-MPEG2000:D4-DSPE-MPEG2000 in a 90:10:4:4 molar ratio. The D4*-ThermoDox comprised DPPC:MSPC: DSPE-MPEG2000:D4*-DSPE-MPEG2000 in a 90:10:2:2 molar ratio. After incubation, the cells were washed 4 times with PBS, and counted by FACS using doxorubicin fluorescence (excitation at 488 nm, and emission at 575 nm).
The following groups were examined: a. Non-treatment control; b. ThermoDox at approx. 0.01-10 μg (doxorubicin)/mL; c. D4-ThermoDox2+2 at approx. 0.01-10 μg (doxorubicin)/mL; d. D4-ThermoDox4+4 at approx. 0.01-10 μg (doxorubicin)/mL; e. D4*-ThermoDox at approx. 0.01-10 μg (doxorubicin)/mL; and f. doxorubicin hydrochloride 0.01-10 μg. […]

[4] = system: H1299 tumor bearing mice; assay: In vivo fluorescence imaging of Cy5.5 labeled peptides; conditions: tail vein injection, 1 to 6 hours after injection
Procedure: Both H1299 and SPCA1 xenograft mouse models were prepared by the animal experimental center of Shanghai Cancer Institute. They were used in the in vivo imaging experiments about 3˜4 weeks after tumor cell inoculation (tumor size about 5-7 mm diameter), and humanely sacrificed afterwards. The animal study protocols were approved by the Animal Study Committee of Shanghai Jiaotong University, School of Pharmacy.
At various time points afterwards, the mice were anesthetized and imaged with an Optix in vivo fluorescence imaging system (GE Healthcare). Excepted for the Cy5.5 dye only control, all the other groups contained at least 3 mice. The representative images from the same most representative mouse in each group were shown. The images had been processed using the fluorescence lifetime gating for Cy5.5 (0.8-1.1 ns) to remove most autofluorescent interferences.
Cy5.5 fluorescence distributions inside the mice were imaged at various time points after injection. In all groups including the free dye control, fluorescences were first seen all over the body, and then quickly afterwards in the kidney and bladder. […] But in LARLLT-Cy5.5 injected mice, between 1 to 6 hours after injection, fluorescence signals in the tumor tissue were much stronger, as compared to the surrounding tissues.

[5] = molecular target: epidermal growth factor receptor (EGFR) on EGFR high-expressing human lung cancer cells (H1299, SPCA1) (human, UniProt P00533 25-1210); assay: cell-based or functional assay

COc1cccc2c1C(=O)c1c(O)c3c(c(O)c1C2=O)C[C@@](O)(C(=O)CO)C[C@@H]3O[C@H]1C[C@H](N)[C@H](O)[C@H](C)O1 [free doxorubicin, doxorubicin]
IC50 [1]: 5.7 µg/mL (≈ 10.5 µM) | IC50 [2]: 2 µg/mL (≈ 3.68 µM) | doxorubicin uptake (mean fluorescence intensity) [3]: highest

Cy5.5
fluorescence signal in the tumor region [4]: the same as background

B1: control peptide modified liposomes (scrambled peptide RTALLL conjugated to DSPE-PEG2000, inserted into preformed liposomes) (peptide)
peptide: RTALLL
modifications: peptide thiolated with SPDP, reduced with TCEP and coupled to the maleimide of DSPE-PEG2000-Mal; the lipid conjugate is inserted into liposomes
IC50 of cell killing (MTT), doxorubicin liposomes, H1299 cells [5]: 85 µg/mL | IC50 of cell killing (MTT), doxorubicin liposomes, SPCA1 cells [5]: 15 µg/mL
